The structures appear in SMILES notation.

The target in this experiment is T1, ERα protein (HiBiT-tagged) in ESR1_HiBiT KI MCF7 cells (Homo sapiens, UniProt P03372).
T1 sequence (P03372 1-595): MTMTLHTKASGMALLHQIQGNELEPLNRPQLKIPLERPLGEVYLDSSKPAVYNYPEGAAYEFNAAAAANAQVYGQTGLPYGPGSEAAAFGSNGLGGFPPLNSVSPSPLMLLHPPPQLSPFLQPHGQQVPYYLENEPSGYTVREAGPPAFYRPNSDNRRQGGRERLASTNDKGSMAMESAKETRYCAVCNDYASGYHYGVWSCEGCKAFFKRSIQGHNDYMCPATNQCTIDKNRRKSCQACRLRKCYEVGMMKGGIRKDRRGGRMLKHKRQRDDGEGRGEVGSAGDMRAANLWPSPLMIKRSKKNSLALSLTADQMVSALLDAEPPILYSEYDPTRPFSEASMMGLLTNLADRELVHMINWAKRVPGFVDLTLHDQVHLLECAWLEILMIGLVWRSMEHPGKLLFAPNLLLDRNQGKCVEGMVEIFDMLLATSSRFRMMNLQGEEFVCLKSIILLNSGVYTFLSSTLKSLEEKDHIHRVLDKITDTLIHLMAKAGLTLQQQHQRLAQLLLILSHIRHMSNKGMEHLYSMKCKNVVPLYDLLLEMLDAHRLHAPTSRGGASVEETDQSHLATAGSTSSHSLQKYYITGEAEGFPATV
Put plainly: Nano Glo HiBiT Lytic Degradation Assay. It is filed as cell-based. To be noted: 6 hours with compound, 14-point dose response 1:3, bell-shape curve fit, half-maximal effect of first Hill model, read-out: MCF7 ESR1 HiBiT - (DC50). The essentials:
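Lytic Nano-Glo HiBiT luminescence quantified ERα remaining after a 6 h, 37° C compound exposure of MCF7 cells carrying endogenous HiBiT-tagged ESR1. Dosing used 14 threefold dilutions from a 10 mM DMSO stock (0.1% DMSO final), run in duplicate. Signals were corrected for cell-free background and expressed relative to DMSO, and DC50 came from a bell-shaped curve fit (first Hill model half-maximum).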
(HiBiT is a short tag that completes a luciferase, so light tracks the accessible tagged protein.)

What is called DC50 is the midpoint of the concentration-degradation curve. As for `Cc1cc(N2CCC(CN3CCN(c4ccc5c(c4)CN([C@H]4CCC(=O)NC4=O)C5=O)CC3)CC2)ccc1[C@@H]1c2ccc(O)cc2CC[C@@H]1C1CCCCC1` [Compound I-141, (S)-3-(5-(4-((1-(4-((1R,2R)-2-cyclohexyl-6-hydroxy-1,2,3,4-tetrahydronaphthalen-1-yl)-3-methylphenyl)piperidin-4-yl)methyl)piperazin-1-yl)-1-oxoisoindolin-2-yl)piperidine-2,6-dione], the DC50 came to 2 nM.

Consider `O=C1CC[C@H](N2Cc3cc(N4CCN(CC5CCN(c6ccc([C@H]7c8ccc(O)cc8CCC78CCCCC8)cc6)CC5)CC4)ccc3C2=O)C(=O)N1` [Compound I-142], for which the DC50 was at least 10000 nM.

Consider `COc1cc(N2CCC(CN3CCN(c4ccc5c(c4)CN([C@H]4CCC(=O)NC4=O)C5=O)CC3)CC2)ccc1[C@H]1c2ccc(O)cc2CC[C@H]1c1ccccc1` [Compound I-143, (S)-3-(5-(4-((1-(4-((1R,2R)-6-hydroxy-2-phenyl-1,2,3,4-tetrahydronaphthalen-1-yl)-3-methoxyphenyl)piperidin-4-yl)methyl)piperazin-1-yl)-1-oxoisoindolin-2-yl)piperidine-2,6-dione], for which the DC50 is at least 10000 nM.

Take `COc1cc(N2CCC(CN3CCN(c4ccc5c(c4)CN([C@H]4CCC(=O)NC4=O)C5=O)CC3)CC2)ccc1[C@@H]1c2ccc(O)cc2CC[C@@H]1c1ccccc1` [Compound I-144, (S)-3-(5-(4-((1-(4-((1S,2S)-6-hydroxy-2-phenyl-1,2,3,4-tetrahydronaphthalen-1-yl)-3-methoxyphenyl)piperidin-4-yl)methyl)piperazin-1-yl)-1-oxoisoindolin-2-yl)piperidine-2,6-dione]: the DC50 worked out at 0.37 nM.

In the case of `O=C1CC[C@H](N2Cc3cc(N4CCN(CC5CCN(c6ccc([C@H]7c8ccc(O)cc8CC[C@H]7C7CCC8(CC7)CC8)cc6)CC5)CC4)ccc3C2=O)C(=O)N1` [Compound I-145], the DC50 is at least 10000 nM.

For `O=C1CC[C@H](N2Cc3cc(N4CCN(CC5CCN(c6ccc([C@@H]7c8ccc(O)cc8CC[C@@H]7C7CCC8(CC7)CC8)cc6)CC5)CC4)ccc3C2=O)C(=O)N1` [Compound I-146], the DC50 worked out at 3 nM.

Turning to `C[C@]1(c2ccccc2)CCc2cc(O)ccc2[C@H]1c1ccc(N2CCC(CN3CCN(c4ccc5c(c4)CN([C@H]4CCC(=O)NC4=O)C5=O)CC3)CC2)cc1` [Compound I-147, (S)-3-(5-(4-((1-(4-((1S,2S)-6-hydroxy-2-methyl-2-phenyl-1,2,3,4-tetrahydronaphthalen-1-yl)phenyl)piperidin-4-yl)methyl)piperazin-1-yl)-1-oxoisoindolin-2-yl)piperidine-2,6-dione], the DC50 came out at 0.42 nM.

Take `C[C@@]1(c2ccccc2)CCc2cc(O)ccc2[C@@H]1c1ccc(N2CCC(CN3CCN(c4ccc5c(c4)CN([C@H]4CCC(=O)NC4=O)C5=O)CC3)CC2)cc1` [Compound I-148, (S)-3-(5-(4-((1-(4-((1R,2R)-6-hydroxy-2-methyl-2-phenyl-1,2,3,4-tetrahydronaphthalen-1-yl)phenyl)piperidin-4-yl)methyl)piperazin-1-yl)-1-oxoisoindolin-2-yl)piperidine-2,6-dione]: the half-maximal degradation concentration (DC50) worked out at 424 nM.

Consider `O=C1CC[C@H](N2Cc3cc(N4CCN(CC5CCN(c6ccc([C@@H]7c8ccc(O)cc8CC[C@@H]7C7CCCCC7)nc6)CC5)CC4)ccc3C2=O)C(=O)N1` [Compound I-149, (S)-3-(5-(4-((1-(6-((1S,2R)-2-cyclohexyl-6-hydroxy-1,2,3,4-tetrahydronaphthalen-1-yl)pyridin-3-yl)piperidin-4-yl)methyl)piperazin-1-yl)-1-oxoisoindolin-2-yl)piperidine-2,6-dione], for which the 50% degradation concentration (DC50) was 0.82 nM.

As for `O=C1CC[C@H](N2Cc3cc(N4CCN(CC5CCN(c6ccc([C@H]7c8ccc(O)cc8CC[C@H]7C7CCCCC7)nc6)CC5)CC4)ccc3C2=O)C(=O)N1` [Compound I-150, (S)-3-(5-(4-((1-(6-((1R,2S)-2-cyclohexyl-6-hydroxy-1,2,3,4-tetrahydronaphthalen-1-yl)pyridin-3-yl)piperidin-4-yl)methyl)piperazin-1-yl)-1-oxoisoindolin-2-yl)piperidine-2,6-dione], the DC50 was at least 10000 nM.

With `COc1cc(N2CCC(CN3CCN(c4ccc5c(c4)CN([C@H]4CCC(=O)NC4=O)C5=O)CC3)CC2)ccc1[C@H]1c2ccc(O)cc2CC[C@H]1C1CCCCC1` [Compound I-151, (S)-3-(5-(4-((1-(4-((1R,2S)-2-cyclohexyl-6-hydroxy-1,2,3,4-tetrahydronaphthalen-1-yl)-3-methoxyphenyl)piperidin-4-yl)methyl)piperazin-1-yl)-1-oxoisoindolin-2-yl)piperidine-2,6-dione], the DC50 was 11 nM.

`COc1cc(N2CCC(CN3CCN(c4ccc5c(c4)CN([C@H]4CCC(=O)NC4=O)C5=O)CC3)CC2)ccc1[C@@H]1c2ccc(O)cc2CC[C@@H]1C1CCCCC1` [Compound I-152, (S)-3-(5-(4-((1-(4-((1S,2R)-2-cyclohexyl-6-hydroxy-1,2,3,4-tetrahydronaphthalen-1-yl)-3-methoxyphenyl)piperidin-4-yl)methyl)piperazin-1-yl)-1-oxoisoindolin-2-yl)piperidine-2,6-dione]: the DC50 came out at 1.43 nM.

`CC(C)[C@@H]1CC(F)(F)c2cc(O)ccc2[C@@H]1c1ccc(N2CCC(CN3CCN(c4ccc5c(c4)CN([C@H]4CCC(=O)NC4=O)C5=O)CC3)CC2)cc1` [Compound I-153, (S)-3-(5-(4-((1-(4-((1S,2S)-4,4-difluoro-6-hydroxy-2-isopropyl-1,2,3,4-tetrahydronaphthalen-1-yl)phenyl)piperidin-4-yl)methyl)piperazin-1-yl)-1-oxoisoindolin-2-yl)piperidine-2,6-dione]: the DC50 turned out to be 13 nM.

With `CC(C)[C@H]1CC(F)(F)c2cc(O)ccc2[C@H]1c1ccc(N2CCC(CN3CCN(c4ccc5c(c4)CN([C@H]4CCC(=O)NC4=O)C5=O)CC3)CC2)cc1` [Compound I-156, (S)-3-(5-(4-((1-(4-((1R,2R)-4,4-difluoro-6-hydroxy-2-isopropyl-1,2,3,4-tetrahydronaphthalen-1-yl)phenyl)piperidin-4-yl)methyl)piperazin-1-yl)-1-oxoisoindolin-2-yl)piperidine-2,6-dione], the DC50 was determined as 0.4 nM.

Consider `O=C1CC[C@H](N2Cc3cc(N4CCN(CC5CCN(c6ccc([C@@H]7c8ccc(O)cc8CC[C@@H]7CC(F)(F)F)cc6)CC5)CC4)ccc3C2=O)C(=O)N1` [Compound I-157, (3S)-3-[5-[4-[[1-[4-[(1R,2R)-6-hydroxy-2-(2,2,2-trifluoroethyl)tetralin-1-yl]phenyl]-4-piperidyl]methyl]piperazin-1-yl]-1-oxo-isoindolin-2-yl]piperidine-2,6-dione], for which the DC50 came to 0.86 nM.

`O=C1CC[C@H](N2Cc3cc(N4CCN(CC5CCN(c6ccc([C@@H]7c8ccc(O)cc8CC[C@@H]7C78CC9CC(CC(C9)C7)C8)cc6)CC5)CC4)ccc3C2=O)C(=O)N1` [Compound I-161, (S)-3-(5-(4-((1-(4-((1R,2S)-2-((3R,5R,7R)-adamantan-1-yl)-6-hydroxy-1,2,3,4-tetrahydronaphthalen-1-yl)phenyl)piperidin-4-yl)methyl)piperazin-1-yl)-1-oxoisoindolin-2-yl)piperidine-2,6-dione]: the DC50 came out at 8 nM.

As for `O=C1CC[C@H](N2Cc3cc(N4CCN(CC5CCN(c6ccc([C@@H]7c8ccc(O)cc8CC[C@@H]7C7CCCCC7)cc6F)CC5)CC4)ccc3C2=O)C(=O)N1` [Compound I-162, (S)-3-(5-(4-((1-(4-((1R,2R)-2-cyclohexyl-6-hydroxy-1,2,3,4-tetrahydronaphthalen-1-yl)-2-fluorophenyl)piperidin-4-yl)methyl)piperazin-1-yl)-1-oxoisoindolin-2-yl)piperidine-2,6-dione], the DC50 amounted to 3 nM.

In the case of `C[C@H]1Cc2cc(O)ccc2[C@@H](c2ccc(N3CCC(CN4CCN(c5ccc6c(c5)CN([C@H]5CCC(=O)NC5=O)C6=O)CC4)CC3)cc2)[C@H]1c1ccccc1` [Compound I-174, (S)-3-(5-(4-((1-(4-((1R,2S,3S)-6-hydroxy-3-methyl-2-phenyl-1,2,3,4-tetrahydronaphthalen-1-yl)phenyl)piperidin-4-yl)methyl)piperazin-1-yl)-1-oxoisoindolin-2-yl)piperidine-2,6-dione], the DC50 is 18 nM.

Turning to `C[C@@H]1Cc2cc(O)ccc2[C@@H](c2ccc(N3CCC(CN4CCN(c5ccc6c(c5)CN([C@H]5CCC(=O)NC5=O)C6=O)CC4)CC3)cc2)[C@H]1c1ccccc1` [Compound I-175, (S)-3-(5-(4-((1-(4-((1R,2S,3R)-6-hydroxy-3-methyl-2-phenyl-1,2,3,4-tetrahydronaphthalen-1-yl)phenyl)piperidin-4-yl)methyl)piperazin-1-yl)-1-oxoisoindolin-2-yl)piperidine-2,6-dione], the DC50 was found to be 0.77 nM.

The values are drawn from patent publication US20250388565A1, “ESTROGEN RECEPTOR ALPHA DEGRADERS AND METHODS OF USE THEREOF” (Relay Therapeutics, Inc., priority 2022, published 2025).
